Results published in patent US9212153B2, “Inhibitors of beta-secretase” (Vitae Pharmaceuticals, Inc., priority 2009, dated 2015).

Target: truncated human beta-secretase (residues 1-458, His6-tagged at the C-terminus) (Homo sapiens (Human), UniProt P56817)
Test: BACE enzyme assay (fluorescence quench, Example 434A)
Type: biochemical
Conditions: not given

truncated human beta-secretase (residues 1-458, His6-tagged at the C-terminus), sequence (P56817 22-458): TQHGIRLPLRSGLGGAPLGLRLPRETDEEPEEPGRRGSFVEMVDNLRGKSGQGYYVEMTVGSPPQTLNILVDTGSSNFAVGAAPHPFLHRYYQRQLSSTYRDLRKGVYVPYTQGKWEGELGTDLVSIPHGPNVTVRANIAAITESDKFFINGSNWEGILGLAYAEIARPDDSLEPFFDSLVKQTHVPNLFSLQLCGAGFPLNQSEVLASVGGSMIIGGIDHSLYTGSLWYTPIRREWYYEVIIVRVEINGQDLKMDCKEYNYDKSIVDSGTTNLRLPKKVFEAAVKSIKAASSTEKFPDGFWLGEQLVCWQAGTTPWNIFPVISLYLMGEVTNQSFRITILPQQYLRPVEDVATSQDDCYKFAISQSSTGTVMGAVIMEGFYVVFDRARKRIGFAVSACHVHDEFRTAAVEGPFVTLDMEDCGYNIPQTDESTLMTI

SMILES	IC50
CN1OC2(N=C1N)c1cc(Br)ccc1C[C@@]21C[C@@H]1c1ccccc1 (stereo partly drawn) [Compound 460]	9810 nM
COC1CCC2(CC1)Cc1ccc(-c3cccnn3)cc1C21N=C(N)N(C)O1 (stereo not drawn) [Compound 107]	228 nM

Same assay, conditions: footnote a: determined according to protocols described in Example 434A

IC50	IC50 (nM)	SMILES
870 nM		CN1C(=O)C2(N=C1N)c1cc(-c3cccc(C#N)c3)ccc1CC21Cc2cnncc2C1 (stereo not drawn) [Compound 471]
138 nM		CN1OC2(N=C1N)c1cc(Br)ccc1CC21CCc2ccccc2CC1 (stereo not drawn) [Compound 67]
	33. l^a	COC1CCC2(CC1)Cc1ccc(C3=CC(O)CC3)cc1C21N=C(N)N(C)C1=O (stereo not drawn) [Compound 476]
293 nM		CN1OC2(C=C1N)c1cc(-c3cccc(C#N)c3)ccc1CC21CCCc2ccccc2C1 (stereo not drawn) [Compound 46]
4.5 nM		COC1CCC2(CC1)Cc1ccc(C#CC3CC3)cc1C21C=C(N)N(C)O1 (stereo not drawn) [Compound 3]

SMILES	IC50	IC50 (nM)
CN1OC2(N=C1N)c1cc(-c3cccc(C#N)c3)ccc1CC21CCS(=O)(=O)CC1 (stereo not drawn) [Compound 459]	693 nM	
Cc1onc2c1CC1(CC2)Cc2ccc(Br)cc2C12N=C(N)N(C)C2=O (stereo not drawn) [Compound 461]	16.7 nM	

Target: BACE (Homo sapiens (Human), UniProt P56817)
Sequence (P56817 46-501 limits assumed): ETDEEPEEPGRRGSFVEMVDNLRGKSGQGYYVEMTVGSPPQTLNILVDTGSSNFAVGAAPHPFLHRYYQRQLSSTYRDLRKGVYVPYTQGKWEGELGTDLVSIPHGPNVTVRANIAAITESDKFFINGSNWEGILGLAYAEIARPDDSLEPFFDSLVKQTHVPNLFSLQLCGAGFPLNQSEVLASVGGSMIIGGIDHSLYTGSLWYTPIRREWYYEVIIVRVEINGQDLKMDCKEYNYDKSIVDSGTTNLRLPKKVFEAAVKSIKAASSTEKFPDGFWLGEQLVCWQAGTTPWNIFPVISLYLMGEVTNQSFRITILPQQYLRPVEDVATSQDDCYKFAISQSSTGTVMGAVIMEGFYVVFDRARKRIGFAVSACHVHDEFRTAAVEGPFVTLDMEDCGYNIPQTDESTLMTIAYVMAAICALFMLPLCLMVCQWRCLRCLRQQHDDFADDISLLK
Test: BACE cell assay (H4-APPsw cells, secreted Aβ 1-40 by AlphaLISA/ELISA)
Type: cell-based
Conditions: in vitro cell activity

IC50	SMILES
< 1000 nM	CCOC1(F)CCC2(CC1)Cc1ccc(-c3cccc(C#N)c3)cc1C21N=C(N)N(C)O1 (stereo not drawn) [compound 49]
< 10000 nM	CN1OC2(C=C1N)c1cc(-c3cccc(C#N)c3)ccc1CC21CCCc2ccccc2C1 (stereo not drawn) [Compound 46]
< 100 nM	COC1CCC2(CC1)Cc1ccc(C#CC3CC3)cc1C21C=C(N)N(C)O1 (stereo not drawn) [Compound 3]
